Species on record: Rattus norvegicus
Experiment: Open TG-GATES - Regimen: Single
Format: toxicity, organism-based, Sprague-Dawley
Set-up: regimen Single, gender Male, age 6 weeks
Conditions: in vivo, po, 40 mg/kg, route gavage, dose level Low; for KIDNEY_L / KIDNEY_R / KIDNEY_TOTAL: tissue Kidney; for LIVER: tissue Liver

CCC(C)(C)C(=O)O[C@H]1C[C@@H](C)C=C2C=C[C@H](C)[C@H](CC[C@@H]3C[C@@H](O)CC(=O)O3)[C@H]21 [SIMVASTATIN]
TBIL (6 h, tissue Plasma): 0.4 mg/dL
TC (6 h, tissue Plasma): 75.8 mg/dL
TG (6 h, tissue Plasma): 50.8 mg/dL
TP (6 h, tissue Plasma): 5.6 g/dL
gamma-GTP (6 h, tissue Plasma): 1.2 IU/L
TERMINAL_BW (9 h): 200.4 g
Bas (9 h, tissue Blood): 0%
Eos (9 h, tissue Blood): 0.8%
Fbg (9 h, tissue Blood): 214.8 mg/dL
Hb (9 h, tissue Blood): 13.2 g/dL
Ht (9 h, tissue Blood): 40.1%
Lym (9 h, tissue Blood): 78.6%
MCH (9 h, tissue Blood): 22 pg
MCHC (9 h, tissue Blood): 32.9%
Mono (9 h, tissue Blood): 7.8%
Neu (9 h, tissue Blood): 12.8%
PT (9 h, tissue Blood): 11.7 s
Plat (9 h, tissue Blood): 110 x10_4/uL
RBC (9 h, tissue Blood): 601.2 x10_4/ul
Ret (9 h, tissue Blood): 9.1%
WBC (9 h, tissue Blood): 101.8 x10_2/uL
KIDNEY_L (9 h): 0.9 g
KIDNEY_R (9 h): 0.9 g
KIDNEY_TOTAL (9 h): 1.8 g
LIVER (9 h): 8.2 g
ALP (9 h, tissue Plasma): 749.6 IU/L
ALT (9 h, tissue Plasma): 32.8 IU/L
AST (9 h, tissue Plasma): 58.4 IU/L
BUN (9 h, tissue Plasma): 12.6 mg/dL
CRE (9 h, tissue Plasma): 0.7 mg/dL
DBIL (9 h, tissue Plasma): 0.016 mg/dL
K (9 h, tissue Plasma): 4.6 meq/L
LDH (9 h, tissue Plasma): 91 IU/L
Na (9 h, tissue Plasma): 138 meq/L
PL (9 h, tissue Plasma): 118.4 mg/dL
RALB (9 h, tissue Plasma): 3.7 g/dL
TBIL (9 h, tissue Plasma): 0.4 mg/dL
TC (9 h, tissue Plasma): 64.8 mg/dL
TG (9 h, tissue Plasma): 42 mg/dL
TP (9 h, tissue Plasma): 5.4 g/dL
gamma-GTP (9 h, tissue Plasma): 2 IU/L
TERMINAL_BW (24 h): 216.2 g
Bas (24 h, tissue Blood): 0%
Eos (24 h, tissue Blood): 1%
Fbg (24 h, tissue Blood): 221.2 mg/dL
Hb (24 h, tissue Blood): 12.5 g/dL
Ht (24 h, tissue Blood): 38.2%
Lym (24 h, tissue Blood): 78.6%
MCHC (24 h, tissue Blood): 32.8%
Mono (24 h, tissue Blood): 9.8%
Neu (24 h, tissue Blood): 11%
Plat (24 h, tissue Blood): 119.9 x10_4/uL
RBC (24 h, tissue Blood): 588.4 x10_4/ul
WBC (24 h, tissue Blood): 118.8 x10_2/uL
KIDNEY_L (24 h): 1 g
KIDNEY_R (24 h): 1 g
KIDNEY_TOTAL (24 h): 2 g
LIVER (24 h): 10.8 g
ALP (24 h, tissue Plasma): 866.2 IU/L
ALT (24 h, tissue Plasma): 41.6 IU/L
AST (24 h, tissue Plasma): 63.6 IU/L
BUN (24 h, tissue Plasma): 18.6 mg/dL
CRE (24 h, tissue Plasma): 0.5 mg/dL
Ca (24 h, tissue Plasma): 10.8 mg/dL
DBIL (24 h, tissue Plasma): 0.022 mg/dL
IP (24 h, tissue Plasma): 8.4 mg/dL
K (24 h, tissue Plasma): 4.6 meq/L
LDH (24 h, tissue Plasma): 108.4 IU/L
Na (24 h, tissue Plasma): 140.2 meq/L
PL (24 h, tissue Plasma): 144.6 mg/dL
RALB (24 h, tissue Plasma): 3.7 g/dL
TBIL (24 h, tissue Plasma): 0.3 mg/dL
